Laboratory results from patent US9341618B2, “Method for evaluating or screening hair growth-regulating agent” (Kao Corporation, priority 2007, dated 2016).
Read-outs that look alike come from different tables or passages of the source.

Tests used:
hair follicles of a pig = details: DHT 10 ng/mL; for Hair elongation quantity (control regarded as 100%): 6th day of organ culture, William's E medium
Experimental: As a pig skin, a skin obtained from a crossbred pig with white hair which has been bred as a pork pig in Japan was used. The pig skin was cut into an appropriate size, the extra fat was cut away, and the resulting skin was soaked in a Hibiten solution (5% Hibiten solution (Sumitomo Pharmaceuticals) was diluted to 5 to 20 times with water) for 5 to 10 minutes under sterile conditions for sterilization and then washed several times with D-PBS.
Then hair follicles were isolated from the treated pig skin using forceps and scalpel (FEATHER No. 10) under a stereo microscope and collected in a medium.
According to the procedures (1), hair follicles of a pig were obtained from the dorsal region, lateral region, abdominal region, inguinal region, buttocks and shoulder of the pig. The isolated hair follicles were placed in a 24-well culture plate to give one hair follicle per well.
Incubation was carried out at 37° C. for 6 days in an incubator containing 5% of CO2.
The medium was exchanged every two days or every three days, and a hair elongation quantity after 6 days incubation was measured and compared with that of control.
For the control, William's E medium not containing DHT was used, and a hair elongation quantity after the organ culture was regarded as 100%.
Incidentally, a hair elongation quantity was measured, regarding the date on which incubation was commenced as the 0th day, by taking stereo microscopic images with a CCD camera (pixera model No. PVC 100C) at the 0th day and the 6th day, and measuring the change of the length from the base of hairbulb to the tip of hair shaft based on the images.

[1] = tested on: hair follicles at the buttocks of a pig; assay: Organ culture of pig buttocks hair follicles in RPMI1640 medium (hair elongation); assay type: cell-based; details: TGF-β2 10 ng/mL, 8th day of organ culture in RPMI1640 medium
Experimental: The hair follicles were incubated at 37° C. for 8 days in an incubator containing 5% of CO2.

[2] = tested on: hair follicles of a human; details: literature; cited from earlier work
[3] = abdominal region hair follicles

Molecule | Growth of hair follicles, effect in words (hair follicles of a pig; [3]) | Hair elongation quantity (control regarded as 100%) (hair follicles of a pig; [3]) [%] | Hair elongation quantity (control regarded as 100%) (hair follicles of a pig; buttocks hair follicles) [%] | Growth of hair follicles, effect in words (hair follicles of a pig; dorsal region hair follicles) | Hair elongation quantity (control regarded as 100%) (hair follicles of a pig; dorsal region hair follicles) [%] | Hair elongation quantity (control regarded as 100%) (hair follicles of a pig; inguinal region hair follicles) [%] | Hair elongation quantity (control regarded as 100%) (hair follicles of a pig; lateral region hair follicles) [%] | Hair elongation quantity (control regarded as 100%) (hair follicles of a pig; shoulder hair follicles) [%] | Hair elongation rate (%) when that of control is regarded as 100% [1] [%] | Effect on hair growth in organ culture [2]
C[C@]12CCC(=O)C[C@@H]1CC[C@@H]1[C@@H]2CC[C@]2(C)[C@@H](O)CC[C@@H]12 [DHT, 5α-dihydrotestosterone] | suppressed | 75 | 102 | promoted | 179 | 102 | 108 | 99 | – | –
TGF-β2: TGF-β2 (R & D Systems, Inc., item No. 102-B2-001/CF), confirmed to suppress hair growth in human hair follicle organ culture (protein, UniProt P61812 303-414, looked up) Transforming growth factor …: ALDAAYCFRNVQDNCCLRPLYIDFKRDLGWKWIHEPKGYNANFCAGACPYLWSSDTQHSRVLSLYNTINPEASASPCCVSQDLEPLTILYYIGKTPKIEQLSNMIVKSCKCS | – | – | – | – | – | – | – | – | 59 | confirmed to suppress hair growth
